Reference: US9932589B2, “EML4-ALK fusion gene” (Astellas Pharma Inc., priority 2006, dated 2018)

Tests used:
[1] = tested on: EML4-ALK fusion polynucleotide v1; assay: siRNA inhibition of mRNA expression of EML4-ALK fusion polynucleotide v1 in v1 expressing 3T3 cells, quantitative PCR; type: cell-based, mouse; conditions: siRNA 20 nM, 72 hours; for Inhibition rate for EML4-ALK gene expression (v1 expressing 3T3 cells): mRNA
Experimental: (§1) The v1 expressing 3T3 cells and U-87MG cells were seeded to 12 well plates (IWAKI; Asahi techno glass corp.) at 50,000 cells and 150,000 cells, respectively. Four hours later, using a transfection reagent (Lipofectamine RNAiMax; Invitrogen Inc.), siRNA-1 to siRNA-9 were prepared to a final concentration of 20 nM and transfected to cells according to the attached instruction. In addition, as a control no siRNA transfection samples were prepared. After 72 hours, the medium was removed, and total RNA was extracted using an RNA purification kit (RNeasy Mini Kit; QIAGEN Inc.) according to the attached instruction, and cDNA was prepared using a cDNA synthesizing kit (ThermoScript RT-PCR System; Invitrogen Inc.) according to the attached instruction.
(§2) The amount of expressed mRNA of the EML4-ALK fusion polynucleotide v1 in v1 expressing 3T3 cells and the amount of mRNA of the ALK gene in U-87MG cells were quantitated using a quantitative PCR reagent (Power SYBR Green PCR Master Mix; Applied Biosystems Inc.) The PCR reaction was carried out as follows: after 10 minutes incubation at 95° C., 45 cycles of 95° C. for 15 seconds and 60° C. for 60 seconds, and then one cycle of 95° C. for 15 seconds, 60° C. for 15 seconds and 95° C. for 15 seconds to complete the reaction. In addition, to calibrate the amount of expression, the amount of expression of the mouse cyclophilin B gene and the human GAPDH gene was similarly quantitated for v1 expressing 3T3 cells and U-87MG cells, respectively. Analyses were carried out using a sequence detector (ABI PRISM 7900 Sequence Detection System; Perkin-Elmer Applied Biosystems Inc.).
(§3) Oligo nucleotides consisting of the base sequences represented by SEQ ID NO: 44 and 48, SEQ ID NO: 50 and 56, SEQ ID NO: 44 and 48 and SEQ ID NO: 12 and 13 were used as the primer sets that specifically recognize the EML4-ALK fusion polynucleotide v1, the mouse cyclophilin B gene, the human ALK gene and the human GAPDH gene. Also, to obtain a standard curve to calculate the amount of respective mRNA, PCR was performed using human genomic DNA (Clontech) as a template for EML4-ALK fusion polynucleotide v1, human ALK and human GAPDH, and using mouse genomic DNA (Clontech) as a template for mouse cyclophilin B and the aforementioned primer sets under the same condition. Since a primer set corresponding to human ALK polynucleotide exon 29 was used to detect the EML4-ALK fusion polynucleotide v1, the standard curve can be obtained using human genomic DNA. The expression amount of the EML4-ALK fusion polynucleotide v1 and the human ALK gene in respective samples was calibrated with the expression amount of the mouse cyclophilin B gene and the human GAPDH gene to obtain the calibrated expression amount.

U-87MG cells = assay: anchorage independent growth on spheroid plate, U-87MG cells expressing full length ALK; type: cell-based, human; conditions: siRNA transfected, 3 days; for U-87MG cell growth inhibition rate: spheroid plate
Experimental: (§4) The v1 expressing 3T3 cells (Example 6(1)) and one of the human glioma cells expressing the full length ALK polypeptide and not expressing EML4-ALK fusion polynucleotide endogenously, U-87 MG cells, were seeded to a 96 well spheroid plate (Sumilon Celltight Spheroid 96U, Sumitomo Bakelite Inc.) at 3000 cells per well in a medium containing 10% fetal bovine serum (DMEM for v1 expressing 3T3 cells and RPMI 1640 for U-87MG). […] At the same time, cells were counted before the addition of drugs (Day 0). Then, cells were cultured under 5% CO2, at 37° C. for 3 days, mixed with a reagent for measuring cell number (CellTiter-Glo™ Luminescent Cell Viability Assay; Promega Inc.) stirred for 20 minutes, and the measurements (day 3) were carried out using a luminometer (ML3000 microtiter plate luminometer; Dynatech Laboratories Inc.).

v1 expressing 3T3 cells = assay: anchorage independent growth on spheroid plate, v1 expressing 3T3 cells; type: cell-based, mouse; conditions: siRNA transfected, 3 days; for v1 expressing 3T3 cells growth inhibition rate: spheroid plate
Experimental: as §4

human ALK gene = assay: siRNA inhibition of mRNA expression of ALK gene in U-87MG cells, quantitative PCR; type: cell-based; conditions: siRNA 20 nM, 72 hours; for Inhibition rate for ALK gene expression (U-87 MG cells): mRNA
Experimental: as §1, §2, §3

Substance | Inhibition rate for EML4-ALK gene expression (v1 expressing 3T3 cells) [1] | growth of U-87MG cells (in words) (U-87MG cells) | U-87MG cell growth inhibition rate (U-87MG cells) | v1 expressing 3T3 cells growth inhibition rate (v1 expressing 3T3 cells) | Inhibition rate for ALK gene expression (U-87 MG cells) (human ALK gene) | expression inhibitory effect on the EML4-ALK fusion polynucleotide (in words) [1] | expression inhibitory effect on the human ALK gene (in words) (human ALK gene) | anchorage independent growth of v1 expressing 3T3 cells (in words) (v1 expressing 3T3 cells)
siRNA-7: siRNA, sense strand SEQ ID NO: 123, antisense SEQ ID NO: 124; ALK area of EML4-ALK v1 (sense GGCCUGUAUACCGGATAATGA; antisense ATTATCCGGUAUACAGGCCCA; chemistry not given here) | 67% | did not inhibit the growth of U-87MG cells | 15% | 87% | – | – | – | –
siRNA-8: siRNA, sense strand SEQ ID NO: 125, antisense SEQ ID NO: 126; ALK area of EML4-ALK v1 (sense GGCCUGUAUACCGGAUAAUGA; antisense AUUAUCCGGUAUACAGGCCCA; chemistry not given here) | 70% | did not inhibit the growth of U-87MG cells | −21% | – | – | – | – | –
siRNA-2: siRNA, sense strand SEQ ID NO: 113, antisense SEQ ID NO: 114; fusion area of EML4-ALK v1 (sense GGGAAAGGACCUAAAGTGTAC; antisense ACACTTUAGGUCCUUUCCCAG; chemistry not given here) | 66% | – | 25% | – | 11% | – | – | –
siRNA-5: siRNA, sense strand SEQ ID NO: 119, antisense SEQ ID NO: 120; fusion area of EML4-ALK v1 (sense AAAGUGUACCGCCGGAAGCAC; antisense GCTTCCGGCGGUACACUUUAG; chemistry not given here) | 76% | – | −13% | – | −22% | – | – | –
siRNA-1: siRNA, sense strand SEQ ID NO: 111, antisense SEQ ID NO: 112; fusion area of EML4-ALK v1 (sense UGGGAAAGGACCUAAAGTGTA; antisense CACTTTAGGUCCUUUCCCAGG; chemistry not given here) | 80% | – | −13% | – | −12% | – | – | –
siRNA-3: siRNA, sense strand SEQ ID NO: 115, antisense SEQ ID NO: 116; fusion area of EML4-ALK v1 (sense GGACCUAAAGUGUACCGCCGG; antisense GGCGGTACACUUUAGGUCCUU; chemistry not given here) | 62% | – | −21% | – | 10% | – | – | –
siRNA-6: siRNA, sense strand SEQ ID NO: 121, antisense SEQ ID NO: 122; fusion area of EML4-ALK v1 (sense AAGUGUACCGCCGGAAGCACC; antisense TGCTTCCGGCGGUACACUUUA; chemistry not given here) | 69% | – | 16% | 97% | 15% | – | – | –
siRNA-4: siRNA, sense strand SEQ ID NO: 117, antisense SEQ ID NO: 118; fusion area of EML4-ALK v1 (sense CCUAAAGUGUACCGCCGGAAG; antisense TCCGGCGGUACACUUUAGGUC; chemistry not given here) | 86% | – | −8% | – | 22% | – | – | –
siRNA-9: negative control siRNA, SEQ ID NO: 127 and 128, base sequence not present in mammalian cells (chain 1 CGGCUGCAAUCGATTGATAGC; chain 2 TATCAAUCGAUUGCAGCCGAA; chemistry not given here) | 29% | did not inhibit the growth | −16% | −35% | −31% | did not demonstrate strong expression inhibitory effect | did not demonstrate strong expression inhibitory effect | did not inhibit the growth
